Results: patent publication US20240383891A1, “BENZIMIDAZOLE AND RELATED ANALOGS FOR INHIBITING YAP/TAZ-TEAD” (SpringWorks Therapeutics, Inc., priority 2023, published 2024)

What was measured:
Format in all cases: cell-based
[1] = system: YAP/TAZ-TEAD transcription; experiment: reporter gene assay for measuring the inhibition of YAP/TAZ-TEAD transcription (TEAD-responsive element luciferase reporter in Hek293T cells); conditions: Homo sapiens, HEK-293T; Hek293T cells transiently transfected with TEAD-responsive element luciferase reporter, 24 hours incubation
Method: Example 21: Activity of compounds of the disclosure in a reporter gene assay for measuring the inhibition of YAP/TAZ-TEAD transcription Hek293T cells are cultured in DMEM supplemented with 10% fetal bovine serum, Sodium pyruvate, Sodium bicarbonate, L-glutamine. The cells are harvested and transiently transfected with TEAD-responsive element luciferase reporter. Transfected cells are plated in 384-well plate containing pre-diluted compounds. After 24 hours incubation at 37° C./5% CO2, assay plates were cooled to room temperature and levelled to an equal volume per well, prior to the addition of 25 uL luciferase substrate SteadyLite (Perkin Elmer)/well. The plate was shaken for 10 min at 600 rpm, centrifuged for 1 min at 500 rpm and measured with an Envision reader (PerkinElmer). The amount of relative light units produced by the TEAD reporter is used to calculate the percentage of inhibition. The percent of reporter inhibition was calculated in the presence of a positive control inhibitor (100% inhibition) versus a condition with the presence of the vehicle basal activity of the reporter (0% inhibition). The ability of a test compound to inhibit this activity was determined as: Percentage inhibition=[[…]((RLU determined in the presence of vehicle—RLU determined for sample with test compound present) divided by (RLU determined in the presence of vehicle—RLU determined for sample with positive control inhibitor))] *100.
The activities of example compounds tested are depicted in Table 3. The activity ranges A, B and C refer to IC50 values in the reporter gene assay as follows: “A”: IC50<1 μM; “B”: 1 μM≤IC50 10 μM and “C”: IC50>10 μM; NT=not tested.

[2] = system: NCI-H226; experiment: mesothelioma cell line proliferation assay, NCI-H226; conditions: Homo sapiens, 144 h; NCI-H226 mesothelioma cells, 6 days incubation, ATPlite cell viability
Method: (§1) Mesothelioma cell lines, NCI-H226 and NCI-H2052 (both sourced from the ATCC cell culture collection) are plated in 96-well plates (Corning® 96 Well White Polystyrene Microplate clear flat bottom, white polystyrene (TC-Treated)), at 1500 cells/well in full medium (RPMI 1640 ATCC modification with L-glutamine, HEPES, Phenol Red, Sodium Pyruvate, High glucose, Low sodium bicarbonate and 10% fetal bovine serum). Cells are incubated overnight at 37° C. in an incubator with 5% CO2. Then compounds, dissolved in DMSO, are added in dose-response. Cells are incubated with compound dilutions for another 6 days at 37° C. in an incubator with 5% CO2. Cell viability is quantitated using the ATPlite kit (Perkin-Elmer) and the luminescence is read-out using an Envision instrument (Perkin-Elmer). The amount of relative light units produced using the ATPlite kit is used to calculate percent of inhibition. The activities of some example compounds are depicted in Table 4. The activity ranges A, B and C refer to EC50 values in the mesothelioma cell line proliferation assay as described as follows: “A”: EC50<1 μM; “B”: 1 μM s […] and “C”: EC50>10 μM; NT: not tested.

[3] = system: NCI-H2052; experiment: mesothelioma cell line proliferation assay, NCI-H2052; conditions: Homo sapiens, 144 h; NCI-H2052 mesothelioma cells, 6 days incubation, ATPlite cell viability
Method: as §1

Row | SMILES | IC50 [1] [nM] | EC50 [2] [nM] | EC50 [3] [nM]
1 | O=C(O)[C@H]1C[C@H](c2nc(-c3ccc(C(F)(F)F)cc3)c3ccccn32)C1 [Cpd. No. 020, trans-3-(1-(4-(trifluoromethyl)phenyl)imidazo[1,5-a]pyridin-3-yl)cyclobutane-1-carboxylic acid] | < 1000 |  | 
2 | CS(=O)(=O)NCc1nc(-c2ccc(C(F)(F)F)cc2)n2ccccc12 [Cpd. No. 006, N-((3-(4-(trifluoromethyl)phenyl)imidazo[1,5-a]pyridin-1-yl)methyl)methanesulfonamide] | 1000 to 10000 |  | 
3 | O=C(O)C1CN(c2nc(-c3ccc(C(F)(F)F)cc3)c3ccccn23)C1 [Cpd. No. 017, 1-(1-(4-(trifluoromethyl)phenyl)imidazo[1,5-a]pyridin-3-yl)azetidine-3-carboxylic acid] | > 10000 |  | 
4 | C=CC(=O)NCc1nc(-c2ccc(C(F)(F)F)cc2)n2cc(C(F)(F)F)ccc12 [Cpd. No. 009, N-((6-(trifluoromethyl)-3-(4-(trifluoromethyl)phenyl)imidazo[1,5-a]pyridin-1-yl)methyl)acrylamide] | < 1000 | < 1000 | < 1000
5 | O=C(O)/C=C/c1nc(-c2ccc(C(F)(F)F)cc2)c2ccc(C(F)(F)F)cn12 [Cpd. No. 022, (E)-3-(6-(trifluoromethyl)-1-(4-(trifluoromethyl)phenyl)imidazo[1,5-a]pyridin-3-yl)acrylic acid] | < 1000 | < 1000 | < 1000
6 | CNS(=O)(=O)/C=C/c1nc(-c2ccc(C(F)(F)F)cc2)c2ccccn12 [Cpd. No. 027, (E)-N-methyl-2-(1-(4-(trifluoromethyl)phenyl)imidazo[1,5-a]pyridin-3-yl)ethene-1-sulfonamide] | < 1000 | < 1000 | < 1000
7 | C=CC(=O)NCc1nc(C2CCC(F)(F)CC2)c2ccccn12 [Cpd. No. 026, N-((1-(4,4-difluorocyclohexyl)imidazo[1,5-a]pyridin-3-yl)methyl)acrylamide] | < 1000 | < 1000 | < 1000
8 | CCC(=O)NCc1nc(-c2ccc(C(F)(F)F)cc2)c2ccccn12 [Cpd. No. 003, N-((1-(4-(trifluoromethyl)phenyl)imidazo[1,5-a]pyridin-3-yl)methyl)propionamide] | > 10000 |  | 
9 | CCC(=O)NCc1nc(-c2ccc(C(F)(F)F)cc2)n2ccccc12 [Cpd. No. 005, N-((3-(4-(trifluoromethyl)phenyl)imidazo[1,5-a]pyridin-1-yl)methyl)propionamide] | > 10000 |  | 
10 | O=c1[nH]nc(-c2nc(-c3ccc(C(F)(F)F)cc3)c3ccccn23)[nH]1 [Cpd. No. 029, 5-(1-(4-(trifluoromethyl)phenyl)imidazo[1,5-a]pyridin-3-yl)-2,4-dihydro-3H-1,2,4-triazol-3-one] | 1000 to 10000 |  | 
11 | O=C(O)CNc1nc(-c2ccc(C(F)(F)F)cc2)c2ccccn12 [Cpd. No. 021, (1-(4-(trifluoromethyl)phenyl)imidazo[1,5-a]pyridin-3-yl)glycine] | > 10000 |  | 
12 | CS(=O)(=O)NCc1nc(-c2ccc(C(F)(F)F)cc2)n2cc(C(F)(F)F)ccc12 [Cpd. No. 011, N-((6-(trifluoromethyl)-3-(4-(trifluoromethyl)phenyl)imidazo[1,5-a]pyridin-1-yl)methyl)methanesulfonamide] | > 10000 |  | 
13 | O=C(O)C1CC(O)(c2nc(-c3ccc(C(F)(F)F)cc3)c3ccccn23)C1 (stereo not shown) [Cpd. No. 014, 3-hydroxy-3-(1-(4-(trifluoromethyl)phenyl)imidazo[1,5-a]pyridin-3-yl)cyclobutane-1-carboxylic acid] | > 10000 |  | 
14 | O=Cc1ccc(-c2nc(-c3ccc(C(F)(F)F)cc3)c3ccccn23)cc1O [Cpd. No. 013, 2-hydroxy-4-(1-(4-(trifluoromethyl)phenyl)imidazo[1,5-a]pyridin-3-yl)benzaldehyde] | < 1000 |  | 
15 | C=CC(=O)NCc1nc(-c2ccc(C(F)(F)F)cc2)n2ccccc12 [Cpd. No. 001, N-((3-(4-(trifluoromethyl)phenyl)imidazo[1,5-a]pyridin-1-yl)methyl)acrylamide] | < 1000 | < 1000 | < 1000
16 | O=C1CC(c2nc(-c3ccc(C(F)(F)F)cc3)c3ccccn23)=NO1 [Cpd. No. 030, 3-(1-(4-(trifluoromethyl)phenyl)imidazo[1,5-a]pyridin-3-yl)isoxazol-5(4H)-one] | 1000 to 10000 |  | 
17 | O=C(O)[C@@H]1C[C@H]1c1nc(-c2ccc(C(F)(F)F)cc2)c2ccccn12 (relative stereo) [Cpd. No. 012, trans-2-(1-(4-(trifluoromethyl)phenyl)imidazo[1,5-a]pyridin-3-yl)cyclopropane-1-carboxylic acid] | < 1000 |  | 
18 | O=C(O)/C=C/c1nc(-c2ccc(C(F)(F)F)cc2)n2ccccc12 [Cpd. No. 007, (E)-3-(3-(4-(trifluoromethyl)phenyl)imidazo[1,5-a]pyridin-1-yl)acrylic acid] | < 1000 |  | 

More lines, now with the values ahead:

Row | IC50 [1] [nM] | EC50 [2] [nM] | EC50 [3] [nM] | SMILES
19 | < 1000 |  |  | O=c1[nH]c(-c2nc(-c3ccc(C(F)(F)F)cc3)c3ccccn23)no1 [Cpd. No. 028, 3-(1-(4-(trifluoromethyl)phenyl)imidazo[1,5-a]pyridin-3-yl)-1,2,4-oxadiazol-5(4H)-one]
20 | < 1000 | < 1000 | < 1000 | O=C(O)/C=C/c1nc(-c2ccc(C(F)(F)F)cc2)c2ccccn12 [Cpd. No. 008, (E)-3-(1-(4-(trifluoromethyl)phenyl)imidazo[1,5-a]pyridin-3-yl)acrylic acid]
21 | > 10000 |  |  | O=C(O)C1CCN1c1nc(-c2ccc(C(F)(F)F)cc2)c2ccccn12 (stereo not shown) [Cpd. No. 016, 1-(1-(4-(trifluoromethyl)phenyl)imidazo[1,5-a]pyridin-3-yl)azetidine-2-carboxylic acid]
22 | > 10000 |  |  | CC(=O)NCc1nc(-c2ccc(C(F)(F)F)cc2)n2cc(C(F)(F)F)ccc12 [Cpd. No. 010, N-((6-(trifluoromethyl)-3-(4-(trifluoromethyl)phenyl)imidazo[1,5-a]pyridin-1-yl)methyl)acetamide]
23 | > 10000 |  |  | O=C(O)Cc1nc(-c2ccc(C(F)(F)F)cc2)c2ccccn12 [Cpd. No. 015, 2-(1-(4-(trifluoromethyl)phenyl)imidazo[1,5-a]pyridin-3-yl)acetic acid]
24 | < 1000 | < 1000 | < 1000 | C=CC(=O)NCc1nc(-c2ccc(C(F)(F)F)cc2)c2ccccn12 [Cpd. No. 002, N-((1-(4-(trifluoromethyl)phenyl)imidazo[1,5-a]pyridin-3-yl)methyl)acrylamide]
25 | < 1000 | < 1000 | < 1000 | O=c1[nH]nc(-c2nc(-c3ccc(C(F)(F)F)cc3)c3ccccn23)o1 [Cpd. No. 025, 5-(1-(4-(trifluoromethyl)phenyl)imidazo[1,5-a]pyridin-3-yl)-1,3,4-oxadiazol-2(3H)-one]
26 | < 1000 |  |  | O=C(O)CCc1nc(-c2ccc(C(F)(F)F)cc2)c2ccccn12 [Cpd. No. 023, 3-(1-(4-(trifluoromethyl)phenyl)imidazo[1,5-a]pyridin-3-yl)propanoic acid]
27 | > 10000 |  |  | O=C(O)[C@H]1C[C@H]1c1nc(-c2ccc(C(F)(F)F)cc2)c2ccccn12 (racemic) [Cpd. No. 018, cis-2-(1-(4-(trifluoromethyl)phenyl)imidazo[1,5-a]pyridin-3-yl)cyclopropane-1-carboxylic acid]
28 | > 10000 |  |  | CS(=O)(=O)NCc1nc(-c2ccc(C(F)(F)F)cc2)c2ccccn12 [Cpd. No. 004, N-((1-(4-(trifluoromethyl)phenyl)imidazo[1,5-a]pyridin-3-yl)methyl)methanesulfonamide]
29 | 1000 to 10000 |  |  | CN(CC(=O)O)c1nc(-c2ccc(C(F)(F)F)cc2)c2ccccn12 [Cpd. No. 024, N-methyl-N-(1-(4-(trifluoromethyl)phenyl)imidazo[1,5-a]pyridin-3-yl)glycine]
30 | > 10000 |  |  | O=C(O)[C@H]1C[C@@H](c2nc(-c3ccc(C(F)(F)F)cc3)c3ccccn32)C1 [Cpd. No. 019, cis-3-(1-(4-(trifluoromethyl)phenyl)imidazo[1,5-a]pyridin-3-yl)cyclobutane-1-carboxylic acid]
